ChEMBL document CHEMBL1201862, “PubChem BioAssay data set” (2004)
Blank lines part the entries; values can stand above or below the compound they belong to. Activity calls are given as the source filed them.

Experiments:
Cytochrome P450 2C9 = Cytochrome P450 2C9 (Homo sapiens, UniProt P11712); settings: Potency
[1] = molecular target: Cyclin-dependent kinase 5/CDK5 activator 1 (Homo sapiens, UniProt Q00535); assay: blockade of human CDK5 activity – biochemical, cherry-picked samples, set 2, dose response (AID 504545)
Cyclin-dependent kinase 5/CDK5 activator 1, sequence (Q00535 whole entry): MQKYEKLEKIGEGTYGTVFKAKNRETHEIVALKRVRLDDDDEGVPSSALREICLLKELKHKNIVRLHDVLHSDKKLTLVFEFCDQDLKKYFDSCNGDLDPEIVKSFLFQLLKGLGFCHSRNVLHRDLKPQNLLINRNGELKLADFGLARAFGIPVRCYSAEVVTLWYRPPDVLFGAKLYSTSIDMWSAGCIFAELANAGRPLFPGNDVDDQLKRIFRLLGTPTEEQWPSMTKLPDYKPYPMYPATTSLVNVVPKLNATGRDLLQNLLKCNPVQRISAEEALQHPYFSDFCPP
Cyclin-dependent kinase 5/CDK5 activator 1, sequence (Q15078 whole entry, further chain): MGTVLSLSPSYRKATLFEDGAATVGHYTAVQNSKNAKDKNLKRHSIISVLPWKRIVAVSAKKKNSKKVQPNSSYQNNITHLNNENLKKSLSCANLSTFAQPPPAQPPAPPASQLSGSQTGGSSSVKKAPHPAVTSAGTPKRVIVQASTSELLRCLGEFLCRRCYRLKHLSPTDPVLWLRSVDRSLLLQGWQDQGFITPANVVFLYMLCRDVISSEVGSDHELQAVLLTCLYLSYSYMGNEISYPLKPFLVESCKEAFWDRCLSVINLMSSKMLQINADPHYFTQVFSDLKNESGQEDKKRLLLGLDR

[2] = molecular target: T1, Neuropeptides B/W receptor type 1 (Homo sapiens, UniProt P48145); assay: Fluorescence-based dose response cell-based high throughput screening assay to identify antagonists of the G-protein coupled receptor 7 (GPR7). [Related pubchem assays: 1952 (Screening assay (GPR7 antagonists).), 1880 (Summary AID.)]; assay type: functional
T1 sequence (P48145 whole entry): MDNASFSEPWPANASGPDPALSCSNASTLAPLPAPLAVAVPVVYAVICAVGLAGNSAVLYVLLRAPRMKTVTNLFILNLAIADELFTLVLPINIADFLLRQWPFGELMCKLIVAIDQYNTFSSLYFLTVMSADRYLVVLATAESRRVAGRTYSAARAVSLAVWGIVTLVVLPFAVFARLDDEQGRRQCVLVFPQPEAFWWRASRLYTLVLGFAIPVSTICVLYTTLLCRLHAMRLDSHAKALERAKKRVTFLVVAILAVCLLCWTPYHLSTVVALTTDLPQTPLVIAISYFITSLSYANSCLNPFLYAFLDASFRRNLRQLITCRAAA

[3] = molecular target: Melanin-concentrating hormone receptor 1 (Homo sapiens, UniProt Q99705); assay: Fluorescence-based counterscreen for antagonists of the G-protein coupled receptor 7 (GPR7): cell-based high throughput dose response assay to identify antagonists of the melanin-concentrating hormone receptor 1 (MCHR1).; assay type: functional
Melanin-concentrating hormone receptor 1, sequence (Q99705 whole entry): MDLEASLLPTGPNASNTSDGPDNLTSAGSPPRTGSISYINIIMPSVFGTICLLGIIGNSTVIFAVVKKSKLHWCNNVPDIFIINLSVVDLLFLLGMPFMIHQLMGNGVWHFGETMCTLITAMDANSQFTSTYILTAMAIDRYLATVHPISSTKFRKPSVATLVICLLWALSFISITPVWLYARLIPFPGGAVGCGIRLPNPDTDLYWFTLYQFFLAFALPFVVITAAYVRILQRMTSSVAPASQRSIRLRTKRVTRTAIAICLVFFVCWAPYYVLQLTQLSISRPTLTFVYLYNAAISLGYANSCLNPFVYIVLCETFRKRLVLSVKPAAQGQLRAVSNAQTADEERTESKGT

[4] = molecular target: T2, Corticotropin-releasing factor receptor 2/Corticotropin-releasing factor-binding protein (Homo sapiens, UniProt P24387+Q13324); assay: activators of CRF receptor 2 with binding protein – uHTS hits, confirmation (AID 602473); assay type: functional; settings: read-out: EC50_Mean
T2 sequence (Q13324 whole entry): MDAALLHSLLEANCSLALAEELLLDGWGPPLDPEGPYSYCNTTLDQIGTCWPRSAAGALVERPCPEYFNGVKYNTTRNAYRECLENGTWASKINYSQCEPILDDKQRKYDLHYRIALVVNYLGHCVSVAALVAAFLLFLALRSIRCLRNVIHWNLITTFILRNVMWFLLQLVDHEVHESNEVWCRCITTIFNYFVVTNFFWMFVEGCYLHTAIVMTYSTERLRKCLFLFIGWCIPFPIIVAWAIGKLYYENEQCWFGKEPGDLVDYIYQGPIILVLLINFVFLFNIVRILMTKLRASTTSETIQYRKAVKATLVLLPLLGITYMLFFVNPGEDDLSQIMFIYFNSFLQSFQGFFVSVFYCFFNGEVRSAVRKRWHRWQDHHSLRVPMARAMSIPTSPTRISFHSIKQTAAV
T2 sequence (P24387 whole entry): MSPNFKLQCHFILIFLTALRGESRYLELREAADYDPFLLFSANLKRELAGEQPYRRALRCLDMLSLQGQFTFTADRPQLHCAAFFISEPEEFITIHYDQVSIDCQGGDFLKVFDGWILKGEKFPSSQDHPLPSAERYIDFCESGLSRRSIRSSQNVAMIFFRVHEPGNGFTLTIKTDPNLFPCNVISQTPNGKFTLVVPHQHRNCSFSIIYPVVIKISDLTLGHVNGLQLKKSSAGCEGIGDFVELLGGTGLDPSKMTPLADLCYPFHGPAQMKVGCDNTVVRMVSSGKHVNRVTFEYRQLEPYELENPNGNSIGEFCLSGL

Wee1-like protein kinase = Wee1-like protein kinase (Homo sapiens, UniProt P30291); assay: HeLa cell cycle G2/M accumulation – FACS, mechanism study for Wee1 degradation inhibitor project, late-stage follow-up, panel member Wee1 Degradation (AID 2088)
Wee1-like protein kinase, sequence (P30291 whole entry): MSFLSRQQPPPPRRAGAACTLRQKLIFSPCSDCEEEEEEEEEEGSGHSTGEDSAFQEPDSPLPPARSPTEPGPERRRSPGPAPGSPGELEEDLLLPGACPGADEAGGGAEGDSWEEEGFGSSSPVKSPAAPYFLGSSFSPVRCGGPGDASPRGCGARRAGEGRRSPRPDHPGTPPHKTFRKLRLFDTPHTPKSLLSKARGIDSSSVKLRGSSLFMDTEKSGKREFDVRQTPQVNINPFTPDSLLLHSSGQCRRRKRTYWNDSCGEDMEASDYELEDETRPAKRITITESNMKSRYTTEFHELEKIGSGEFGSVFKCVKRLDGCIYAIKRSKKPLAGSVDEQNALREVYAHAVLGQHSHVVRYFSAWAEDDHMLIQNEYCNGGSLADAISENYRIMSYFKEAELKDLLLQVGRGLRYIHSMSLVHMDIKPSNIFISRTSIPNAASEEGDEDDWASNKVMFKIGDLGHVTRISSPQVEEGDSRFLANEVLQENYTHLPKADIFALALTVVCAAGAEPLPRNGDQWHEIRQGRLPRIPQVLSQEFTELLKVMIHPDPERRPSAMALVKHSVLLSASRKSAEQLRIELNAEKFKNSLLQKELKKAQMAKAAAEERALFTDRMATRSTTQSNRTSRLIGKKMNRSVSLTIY

[5] = molecular target: G2/mitotic-specific cyclin-B1 (Homo sapiens, UniProt P14635); assay: HeLa cell cycle G2/M accumulation – FACS, mechanism study for Wee1 degradation inhibitor project, late-stage follow-up, panel member Cyclin B Degradation (AID 2088)
G2/mitotic-specific cyclin-B1, sequence (P14635 whole entry): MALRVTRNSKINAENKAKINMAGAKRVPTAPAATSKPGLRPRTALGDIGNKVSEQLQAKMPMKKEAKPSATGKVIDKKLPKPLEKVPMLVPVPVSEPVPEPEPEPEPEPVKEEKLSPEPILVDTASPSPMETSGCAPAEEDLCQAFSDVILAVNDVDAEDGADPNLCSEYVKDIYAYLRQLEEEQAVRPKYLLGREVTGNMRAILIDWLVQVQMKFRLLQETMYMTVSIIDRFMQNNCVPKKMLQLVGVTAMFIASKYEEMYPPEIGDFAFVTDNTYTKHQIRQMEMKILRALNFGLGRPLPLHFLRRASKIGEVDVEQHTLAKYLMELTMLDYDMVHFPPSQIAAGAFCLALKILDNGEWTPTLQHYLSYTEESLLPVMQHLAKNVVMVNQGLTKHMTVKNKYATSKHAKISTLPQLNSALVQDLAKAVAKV

Cytochrome P450 2D6 = Cytochrome P450 2D6 (Homo sapiens, UniProt P10635); assay: qHTS Assay for Inhibitors and Substrates of Cytochrome P450 2D6. [Related pubchem assays: 410 ]; assay type: ADME; settings: read-out: Potency
Cytochrome P450 2D6, sequence (P10635 whole entry): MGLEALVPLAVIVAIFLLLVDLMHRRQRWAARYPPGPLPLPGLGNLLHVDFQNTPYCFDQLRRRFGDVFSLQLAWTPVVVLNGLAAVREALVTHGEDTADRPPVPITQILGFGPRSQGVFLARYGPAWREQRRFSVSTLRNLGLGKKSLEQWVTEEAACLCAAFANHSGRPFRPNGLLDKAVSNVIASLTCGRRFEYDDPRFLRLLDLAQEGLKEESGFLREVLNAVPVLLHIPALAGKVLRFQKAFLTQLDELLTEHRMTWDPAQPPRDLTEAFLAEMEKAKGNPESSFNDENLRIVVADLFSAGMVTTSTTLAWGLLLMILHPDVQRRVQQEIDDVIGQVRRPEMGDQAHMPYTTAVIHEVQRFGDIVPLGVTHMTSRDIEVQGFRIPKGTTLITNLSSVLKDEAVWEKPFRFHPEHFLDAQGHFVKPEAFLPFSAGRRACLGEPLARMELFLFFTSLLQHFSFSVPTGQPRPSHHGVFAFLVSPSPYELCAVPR

Cytochrome P450 2C9, sequence (P11712 whole entry): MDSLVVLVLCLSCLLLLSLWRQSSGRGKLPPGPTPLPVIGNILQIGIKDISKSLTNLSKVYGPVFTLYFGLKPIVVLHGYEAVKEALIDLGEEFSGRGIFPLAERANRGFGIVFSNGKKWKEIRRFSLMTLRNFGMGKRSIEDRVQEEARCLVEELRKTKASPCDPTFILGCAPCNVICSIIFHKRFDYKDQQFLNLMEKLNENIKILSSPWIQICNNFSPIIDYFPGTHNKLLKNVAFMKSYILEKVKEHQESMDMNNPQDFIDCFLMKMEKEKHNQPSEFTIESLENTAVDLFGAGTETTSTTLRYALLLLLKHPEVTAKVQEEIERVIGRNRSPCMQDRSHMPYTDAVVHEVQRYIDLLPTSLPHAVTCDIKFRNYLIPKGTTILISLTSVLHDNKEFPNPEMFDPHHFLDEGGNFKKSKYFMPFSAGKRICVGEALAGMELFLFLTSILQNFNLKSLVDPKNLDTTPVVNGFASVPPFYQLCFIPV

AC50 (Cytochrome P450 2C9): 25.1 µM (inconclusive)
Compound: CCC[C@@H]1O[C@@H]2C[C@@H]3[C@@H]4CCC5=CC(=O)C=C[C@@]5(C)[C@H]4[C@H](O)C[C@@]3(C)[C@@]2(C(=O)CO)O1

AC50 [1]: 23.4 µM (active)
Compound: CC(C)(C)C(=O)c1sc(Nc2ccccc2)nc1N

IC50 [2]: 6.65 µM (active) | IC50 [3]: 13.3 µM (not active) | EC50 [4]: 9.75 µM (active)
Compound: Cc1cccc(NC(=S)NC(=O)Cc2ccccc2)c1C

EC50 (Wee1-like protein kinase): > 49.7 µM (inactive) | EC50 [5]: > 49.7 µM (inactive)
Compound: Cc1cc(=O)[nH]c(-n2nc(C)cc2NC(=O)c2cccs2)n1

AC50 (Cytochrome P450 2D6): 25.1 µM (inconclusive)
Compound: O=c1cc(-c2ccccc2O)oc2cc(O)cc(O)c12
